From US20060263351A1, “Methods and compositions for protection against thrombolysis associated reperfusion injury” (The General Hospital Corporation, priority 2002, published 2006)
Entries after “also recorded” stand apart in the source; their conditions may differ.

Legend:
[1] = system: MMP-9; details: rats pre-treated intravenously with U0126 vs saline, 2 hr focal ischemia
Source text: In this investigation, rats were pre-treated with either saline or U0126 intravenously, then subjected to 2 hr focal ischemia. U0126 inhibits MEK, which is the upstream kinase that activates ERK.

[2] = system: MMP-9; assay: tPA-induced MMP-9 production in wild-type murine embryonic fibroblasts (MEF-1); format: cell-based, mouse; details: wild-type MEF-1 cells
[3] = system: MMP-9; assay: tPA-induced MMP-9 production in LRP knockout murine embryonic fibroblasts (PEA-13); format: cell-based, mouse; details: LRP knockout PEA-13 cells
[4] = system: ERK; assay: Western blot of phospho-ERK after tPA exposure in vitro; format: cell-based; details: 40 μg/ml tPA; rat cultures
Source text: (§1) The presence of MMP upregulation following activation of various signaling pathways after tPA binds to LRP, was investigated. In this investigation, MAP kinase was examined.

[5] = system: MMP-2; assay: Zymography of conditioned media, brain microvessel endothelial cells, MMP-2; format: cell-based; details: human brain endothelial cells
Procedure: (§2) Different doses of tPA were added to primary co-cultures of neurons/astrocytes from rat brain, or microvessel endothelial cells from human brain. Cytotoxicity assays of LDH release confirmed that these doses were not toxic, consistent with our previous published experience using tPA in vitro (Wang X, et al., Neurosci Lett 274:79-82, 1999). In addition, these doses are within range of plasma concentrations in patients treated with intravenous tPA (NINDS rt-PA Stroke Study Group, New Engl J Med 333:1581-1587, 1995).

[6] = system: MMP-9; assay: Gelatin zymography of brain after embolic focal ischemia, MMP-9; format: in vivo, rat; details: tPA 10 mg/kg, 6 hrs post-ischemia; 12 hrs after embolic focal ischemia; vs saline
Source text: (§3) The use of BB-94 provided pharmacologic evidence that MMPs were involved in tPA-induced hemorrhage. The role of tPA in further increasing MMP levels was investigated (Sumii, T, E. H. Lo, Stroke 33:831-836, 2002; Aoki, T., et al., Stroke 33:2711-2717, 2002). At 12 hrs after embolic focal ischemia in rats, gelatin zymograms show an upregulation in MMP-9, as expected (FIG. 2A). […] This is an important point since MMP-9 is already produced in ischemic brain. The relevance of tPA-induced MMP-9 is dependent on how much more is released.

[7] = system: MMP-9; assay: Zymography of conditioned media, neuron/astrocyte co-cultures, MMP-9; format: cell-based, rat; details: 24 hr exposure to tPA
Procedure: as §2

[8] = system: MMP-2; assay: Gelatin zymography of brain after embolic focal ischemia, MMP-2; format: in vivo, rat; details: tPA 10 mg/kg, 6 hrs post-ischemia; 12 hrs after embolic focal ischemia; vs saline
Source text: as §3

[9] = system: p38 MAP kinase; assay: Western blot of phospho-p38 after tPA exposure in vitro; format: cell-based; details: 40 μg/ml tPA; rat cultures
Source text: as §1

[10] = system: MMP-9; assay: Gelatin zymography of brain after mechanical (filament) transient focal ischemia, MMP-9; format: in vivo, rat; details: 2 hr transient filament occlusion, reperfused 3, 6, or 24 hrs; tPA 10 mg/kg at onset of reperfusion; vs saline
Procedure: Similar findings were obtained in mechanical (filament) models of focal ischemia. Rats were subjected to transient occlusions for 2 hrs, then reperfused for 3, 6, or 24 hrs. Saline controls were compared with rats treated with 10 mg/kg of tPA at the onset of reperfusion.

[11] = system: microvessel endothelial cells from human brain; assay: Cytotoxicity assay of LDH release, brain endothelial cells; format: cell-based; details: different doses of tPA
Procedure: as §2

[12] = system: MMP-9; assay: Zymography of conditioned media, brain microvessel endothelial cells, MMP-9; format: cell-based, human
Procedure: as §2

[13] = system: primary co-cultures of neurons/astrocytes from rat brain; assay: Cytotoxicity assay of LDH release, neuron/astrocyte co-cultures; format: cell-based; details: different doses of tPA
Procedure: as §2

| Compound | ischemic upregulation of MMP-9 [1] | MMP-9 production [2] | MMP-9 response [3] | activation of ERK pathway (phospho-ERK) [4] | dose- and time-dependence of tPA-induced MMP-2 release [5] | MMP-9 levels in brain (gelatin zymograms) [6] | secretion of MMP-9 [7] | MMP-2 levels in brain (gelatin zymograms) [8] | activation of p38 MAP kinase pathway (phospho-p38) [9] | upregulation of MMP-9 in brain (gelatin zymograms) [10] | cytotoxicity (LDH release) [11] | secretion of MMP-9 ([12]; cerebral microvessel endothelial cells, 24 hr exposure to tPA) | dose- and time-dependence of tPA-induced MMP-9 release ([12]; human brain endothelial cells) | cytotoxicity (LDH release) [13] |
| --- | --- | --- | --- | --- | --- | --- | --- | --- | --- | --- | --- | --- | --- | --- |
| N#CC(=C(/N)Sc1ccccc1N)/C(C#N)=C(\N)Sc1ccccc1N [U0126] | can attenuate ischemic upregulation of MMP-9; also recorded: attenuated MMP-9 levels |  |  |  |  |  |  |  |  |  |  |  |  |  |
| tPA: tissue plasminogen activator (alteplase), thrombolytic agent |  | induced MMP-9 production | no tPA-induced MMP-9 response; also recorded: no significant response | activation of ERK; also recorded: rapidly activated | clear dose- and time-dependence | more than doubled the production of MMP-9; also recorded: doubling of MMP-9 | clearly induced secretion of MMP-9; also recorded: increased MMP-9 secretion | slightly increased but the difference did not reach statistical significance | activation; also recorded: rapidly activated | clearly amplified the upregulation of MMP-9; also recorded: MMP-9 is amplified | not toxic | clearly induced secretion of MMP-9; also recorded: increased MMP-9 secretion | clear dose- and time-dependence | not toxic |
